Experiments:
[1] = Selectivity ratio of IC50 for cyclinE/CDK2 to IC50 for CHK1
[2] = target: T1, Serine/threonine-protein kinase Chk1 (Homo sapiens, UniProt O14757); assay: Inhibition of recombinant His-tagged CHK1 using biotin-RSGLYRSPSMPENLNRPR as substrate after 1 hr by scintillation proximity assay
T1 sequence (O14757 whole entry): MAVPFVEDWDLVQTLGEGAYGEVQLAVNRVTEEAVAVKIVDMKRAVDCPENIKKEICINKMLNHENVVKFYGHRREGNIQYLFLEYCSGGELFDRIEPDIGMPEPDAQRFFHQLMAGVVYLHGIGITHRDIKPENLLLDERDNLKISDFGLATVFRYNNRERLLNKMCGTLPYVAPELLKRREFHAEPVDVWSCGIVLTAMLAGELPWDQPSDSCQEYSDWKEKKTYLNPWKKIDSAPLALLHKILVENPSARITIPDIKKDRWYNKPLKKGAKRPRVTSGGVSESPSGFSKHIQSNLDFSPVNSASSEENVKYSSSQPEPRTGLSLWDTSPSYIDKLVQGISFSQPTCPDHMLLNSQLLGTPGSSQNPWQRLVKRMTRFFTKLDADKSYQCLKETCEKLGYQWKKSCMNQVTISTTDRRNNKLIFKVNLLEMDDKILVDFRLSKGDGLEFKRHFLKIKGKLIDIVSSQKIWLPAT

[3] = target: T1, Serine/threonine-protein kinase Chk1; assay: Inhibition of CHK1 in human U2OS cells pretreated with hydroxyurea assessed as gamma-H2AX level after 2 hrs by immunofluorescence assay; assay type: cell-based
[4] = target: Cyclin-dependent kinase 2/cyclin E1 (Homo sapiens, UniProt P24941); assay: Inhibition of Cyclin E/CDK2 expressed in Sf9 cells using [33gamma]ATP after 1 hr by liquid scintillation counter
[5] = target: T1, Serine/threonine-protein kinase Chk1; assay: Binding affinity to CHK1 by affinity-selection-mass […] assay

Ratio IC50 [1] | IC50 [2] [nM] | EC50 [3] [nM] | IC50 [4] [nM] | Kd [5] [nM] | Compound
3 | 86 |  |  |  | C[C@H]1CN(c2ccccc2NC(=O)c2csc(-c3ccc4c(c3)CCO4)n2)CCN1
 | 13000 |  |  |  | O=C(Nc1ccccc1N1CCNCC1)c1csc(-c2cncnc2)n1
33 | 110 |  |  |  | O=C(Nc1ccccc1N1CCNCC1)c1csc(-c2cc[nH]n2)n1
73 | 19 |  |  |  | CN(C)c1ccc(-c2nc(C(=O)Nc3ccccc3N3CCNCC3)cs2)cc1
 | > 50000 |  |  |  | O=C(Nc1ccccc1N1CCNCC1)c1nc(-c2ccc3c(c2)CCO3)cs1
33 | 7 | 1500 |  |  | O=C(Nc1ccccc1N1CCNCC1)c1csc(-c2cc3ccccc3s2)n1
 | 130 |  |  |  | O=C(Nc1ccccc1N1CCNCC1)c1csc(-c2ccc(-c3cccs3)s2)n1
5 | 72 |  |  |  | COc1ccc(-c2nc(C(=O)Nc3ccccc3N3CCNCC3)cs2)cc1
380 | 5 | 2500 |  |  | O=C(Nc1ccccc1N1CCNCC1)c1csc(-c2ccc3sccc3c2)n1
27 | 19 | 2000 |  |  | O=C(Nc1ccccc1N1CCNCC1)c1csc(-c2ccc3occc3c2)n1
12 | 87 |  |  |  | O=C(Nc1ccccc1N1CCNCC1)c1csc(-c2ccccc2)n1
6.6 | 520 |  |  |  | COc1ccc(-c2nc(C(=O)Nc3ccccc3N3CCNCC3)cs2)cc1OC
 | 190 |  |  |  | O=C(Nc1ccccc1N1CCNCC1)c1csc(-c2ccc3c(c2)OCCCO3)n1
32 | 440 |  |  |  | O=C(Nc1ccccc1N1CCNCC1)c1csc(C#Cc2ccccc2)n1
18 | 170 |  |  |  | O=C(Nc1ccccc1N1CCNCC1)c1csc(-c2ccc3c(c2)OCO3)n1
 | 1200 |  |  |  | O=C(Nc1ccccc1N1CCNCC1)c1csc(-c2ccc[nH]2)n1
 | > 50000 |  |  |  | O=C(Nc1ccccc1N1CCNCC1=O)c1csc(-c2ccc3c(c2)CCO3)n1
12 | 580 |  |  |  | COc1ccc(-c2nc(C(=O)Nc3ccccc3N3CCNCC3)cs2)cc1C
 | 5200 |  |  |  | N#Cc1ccc(-c2nc(C(=O)Nc3ccccc3N3CCNCC3)cs2)cn1
1.8 | 4500 |  |  |  | O=C(Nc1ccccc1C1CCNCC1)c1csc(-c2ccc3c(c2)CCO3)n1
 | > 50000 |  |  |  | O=C1CN(c2ccccc2NC(=O)c2csc(-c3ccc4c(c3)CCO4)n2)CCN1

Ratio IC50 [1] | IC50 [2] [nM] | EC50 [3] [nM] | IC50 [4] [nM] | Kd [5] [nM] | Compound
960 | 4 | 3500 |  |  | O=C(Nc1ccccc1N1CCNCC1)c1csc(-c2ccc3[nH]ccc3c2)n1
2 | 120 |  |  |  | C[C@@H]1CN(c2ccccc2NC(=O)c2csc(-c3ccc4c(c3)CCO4)n2)CCN1
6 | 69 |  |  |  | O=C(Nc1ccccc1N1CCNCC1)c1csc(-c2csc3ccccc23)n1
 | > 50000 |  |  |  | O=C(Nc1ccccc1N1CCOCC1)c1csc(-c2ccc3c(c2)CCO3)n1
5 | 210 |  |  |  | O=C(Nc1ccccc1N1CCNCC1)c1csc(-c2ccsc2)n1
 | 280 |  |  |  | CC1CNCCN1c1ccccc1NC(=O)c1csc(-c2ccc3c(c2)CCO3)n1 (stereo unspecified)
 | 21000 |  |  |  | Cc1nc(-c2ccc3c(c2)CCO3)sc1C(=O)Nc1ccccc1N1CCNCC1
0.16 | 2000 |  |  |  | CN1CCN(c2ccccc2NC(=O)c2csc(-c3ccc4c(c3)CCO4)n2)CC1
3600 | 5 | > 50000 |  |  | O=C(Nc1ccccc1N1CCNCC1)c1csc(-c2ccc(Oc3ccccc3)cc2)n1
0.34 | 4100 |  |  |  | CC(=O)N1CCN(c2ccccc2NC(=O)c2csc(-c3ccc4c(c3)CCO4)n2)CC1
0.8 | 1400 |  |  |  | O=C(Nc1ccccc1N1CCNCC1)c1csc(-c2cccnc2)n1
2.7 | 75 | 10000 | 210 | < 100 | O=C(Nc1ccccc1N1CCNCC1)c1csc(-c2ccc3c(c2)CCO3)n1
 | 3400 |  |  |  | O=C(Nc1ccccc1N1CCNCC1)c1cc(-c2ccc3c(c2)OCO3)on1
 | > 50000 |  |  |  | CN(C)Cc1ccc(-c2nc(C(=O)Nc3ccccc3N3CCNCC3)cs2)cc1
0.54 | 1500 |  |  |  | O=C(Nc1ccccc1N1CCNCC1)c1csc(-c2ccncc2)n1
16 | 36 |  |  |  | O=C(Nc1ccccc1N1CCNCC1)c1csc(-c2cccs2)n1
 | 100 |  |  |  | O=C(Nc1ccccc1N1CCNCC1)c1csc(-c2cc[nH]c2)n1
 | 3900 |  |  |  | CC#Cc1nc(C(=O)Nc2ccccc2N2CCNCC2)cs1
 | 89 |  |  |  | O=C(Nc1ccccc1N1CCNCC1)c1csc(-c2ccc(-c3ccccc3)s2)n1
0.67 | 190 |  |  |  | O=C(Nc1ccccc1N1CCNCC1)c1csc(-c2cn[nH]c2)n1

Compound | Ratio IC50 [1] | IC50 [2] [nM] | EC50 [3] [nM] | IC50 [4] [nM] | Kd [5] [nM]
O=C(Nc1ccccc1C1=CCNCC1)c1csc(-c2ccc3c(c2)CCO3)n1 | 1.7 | 760 |  |  | 

— ChEMBL document CHEMBL2034873, “Discovery of a Novel Series of CHK1 Kinase Inhibitors with a Distinctive Hinge Binding Mode” (ACS Med Chem Lett, 2012)
